# In the oligonucleotide strings, read from the 5' end, every base follows the letter of its sugar. An asterisk marks phosphorothioate; unmarked linkages are phosphodiester. Other units and linkages are bracketed, terminal groups are in braces. A string of capitals states the bases alone. e = 2'-O-(2-methoxyethyl) (MOE); [5mC] = 5-methylcytosine; d = 2'-deoxy (DNA)
# Legend:
# PEPCK-c = PEPCK-c mRNA expression in HepG2 cells; format: cell-based, human; conditions: HepG2, 1 nM insulin, 100 nM
# A549 cells = experiment: Cell cycle assay in A549 cells; format: cell-based, human; conditions: for G2/M delay or arrest, dose response / cell cycle delay or arrest (G2/M), dose response: A549, 25-, 50-; for G2/M delay or arrest, dose response: 100-, or 150 nM; for % cells in cell cycle phase: G1 / % cells in cell cycle phase: G2/M / % cells in cell cycle phase: S / % cells in cell cycle phase: aneuploid / % cells in cell cycle phase: subG1: A549 cells, relative to the untreated control cells in that phase; for % cells in cell cycle phase: G1 / % cells in cell cycle phase: G2/M / % cells in cell cycle phase: S / % cells in cell cycle phase: aneuploid / % cells in cell cycle phase: subG1 / cell cycle delay or arrest (G2/M), dose response: 24 hours; for cell cycle delay or arrest (G2/M), dose response: 100- or 150 nM
# Description: In accordance with the present invention, certain oligomeric compounds targeting miRNAs were selected for dose response studies. Using the cell cycle assay described above, the cell cycle profiles of HeLa or A549 cells treated with varying concentrations of oligomeric compounds of the present invention were assessed.
# Concomittent decreases in the percentage of cells in G1-phase of the cell cycle and increases in the percentage of hypodiploid (subG1) cells were also observed.
# In a further study, A549 cells were treated with 25-, 50-, 100- or 150 nM of the oligomeric compounds ISIS Numbers 338637 (SEQ ID NO: 464) targeted against mir-96, and ISIS 338769 (SEQ ID NO: 596) targeted against mir-130b, ISIS 338836 (SEQ ID NO: 663) targeted against mir-23a, and ISIS 340350 (SEQ ID NO: 855) targeted against mir-95 (Mourelatos). Cells treated with increasing concentrations of oligomeric compounds were compared to untreated cells, to assess the dose-responsiveness of the observed delay or arrest. The random-mer ISIS 29848 was used as a negative control. Cells were prepared for flow cytometry 24-hours after oligonucleotide treatment. Results of these dose response studies are shown in Table 34, where data are expressed as percentage of cells in each phase relative to the untreated control cells in that phase.
# HeLa cells = experiment: Cell cycle assay in HeLa cells; format: cell-based, human; conditions: for phase of the cell cycle in which cells arrest or delay: HeLa; for % cells in cell cycle phase: G1 / % cells in cell cycle phase: G2/M / % cells in cell cycle phase: S / % cells in cell cycle phase: aneuploid / % cells in cell cycle phase: subG1: 48 hours after treatment, relative to untreated control (UTC=100)
# HuVECs = experiment: Endothelial tube formation assay in HuVECs; conditions: 75 nM
# T47D cells = experiment: Caspase-3 activity assay (apoptosis) in T47D cells; conditions: caspase assay, 200 nM; conclusion from Tables 9-12
# [1] = HeLa cells, 150 nM oligomeric compound, 24 hours, relative to untreated control (UTC = 100)
# [2] = HeLa cells, 150 nM oligomeric compound
# [3] = HeLa cells, 150 nM, 48 hours, relative to untreated control
substance,measurement,setting,value
"ISIS 328342: SEQ ID NO: 451, targeting mir-203 (e[5mC]*eA*eA*eT*eT*dG*d[5mC]*dG*d[5mC]*dT*dA*d[5mC]*dA*dG*dA*eA*e[5mC]*eT*eG*eT)",reduction of PEPCK-c mRNA expression,PEPCK-c,61%
same,"G2/M delay or arrest, dose response",A549 cells,dose-responsive G2/M delay or arrest
same,phase of the cell cycle in which cells arrest or delay,"HeLa cells; 150 nM, both 24 and 48 hours",G2/M-phase
"338836 (antisense TCCTCGGTGGCAGAGCTCAG; all 2'-MOE, all phosphorothioate, methylation of C not given here) [compound 338836]",% cells in cell cycle phase: G1,A549 cells; 25 nM,97%
same,% cells in cell cycle phase: G2/M,A549 cells; 25 nM,97%
same,% cells in cell cycle phase: S,A549 cells; 25 nM,103%
same,% cells in cell cycle phase: aneuploid,A549 cells; 25 nM,99%
same,% cells in cell cycle phase: subG1,A549 cells; 25 nM,76%
same,% cells in cell cycle phase: G1,A549 cells; 50 nM,113%
same,% cells in cell cycle phase: G2/M,A549 cells; 50 nM,98%
same,% cells in cell cycle phase: S,A549 cells; 50 nM,89%
same,% cells in cell cycle phase: aneuploid,A549 cells; 50 nM,111%
same,% cells in cell cycle phase: subG1,A549 cells; 50 nM,232%
same,% cells in cell cycle phase: G1,A549 cells; 100 nM,117%
same,% cells in cell cycle phase: G2/M,A549 cells; 100 nM,116%
same,% cells in cell cycle phase: S,A549 cells; 100 nM,80%
same,% cells in cell cycle phase: aneuploid,A549 cells; 100 nM,153%
same,% cells in cell cycle phase: subG1,A549 cells; 100 nM,68%
same,% cells in cell cycle phase: G1,A549 cells; 150 nM,117%
same,% cells in cell cycle phase: G2/M,A549 cells; 150 nM,149%
same,% cells in cell cycle phase: S,A549 cells; 150 nM,69%
same,% cells in cell cycle phase: aneuploid,A549 cells; 150 nM,114%
same,% cells in cell cycle phase: subG1,A549 cells; 150 nM,178%
same,% cells aneuploid,HeLa cells; [1],150%
same,% cells in cell cycle phase G1,HeLa cells; [1],185%
same,% cells in cell cycle phase G2/M,HeLa cells; [1],105%
same,% cells in cell cycle phase S,HeLa cells; [1],53%
same,% cells in cell cycle phase subG1,HeLa cells; [1],153%
same,% cells in cell cycle phase: G1,HeLa cells; [2],52%
same,% cells in cell cycle phase: G2/M,HeLa cells; [2],169%
same,% cells in cell cycle phase: S,HeLa cells; [2],152%
same,% cells in cell cycle phase: aneuploid,HeLa cells; [2],165%
same,% cells in cell cycle phase: subG1,HeLa cells; [2],811%
same,% cells in cell cycle phase G1,HeLa cells; [3],97%
same,% cells in cell cycle phase G2/M,HeLa cells; [3],121%
same,% cells in cell cycle phase S,HeLa cells; [3],96%
same,% cells in cell cycle phase aneuploid,HeLa cells; [3],114%
same,% cells in cell cycle phase subG1,HeLa cells; [3],303%
"GGCTGTCAATTCATAGGTCAG (anti-miR; chemistry not fully specified) [ISIS 327902, uniform 2′-MOE PS; targets mir-192-1]",tube formation,HuVECs,suppressed tube formation
same,"G2/M delay or arrest, dose response",A549 cells,dose-responsive G2/M delay or arrest
same,phase of the cell cycle in which cells arrest or delay,"HeLa cells; 150 nM, 24 hours",G2/M-phase
same,phase of the cell cycle in which cells arrest or delay,"HeLa cells; 150 nM, 48 hours",S- and G2/M-phases
"ISIS 340350: SEQ ID NO: 855, targeted against mir-95 (Mourelatos) (TGCTCAATAAATACCCGTTGAA; all 2'-MOE, all phosphorothioate, methylation of C not given here)","cell cycle delay or arrest (G2/M), dose response",A549 cells,dose-responsive delay or arrest
same,phase of the cell cycle in which cells arrest or delay,"HeLa cells; 150 nM, 24 hours",G1-phase
same,phase of the cell cycle in which cells arrest or delay,"HeLa cells; 150 nM, 48 hours",S-phase
ISIS 328383: chimeric 2′-MOE gapmer targeted against the mir-192-1 precursor (eA*eG*eA*eG*eG*dG*dG*dA*dG*dA*d[5mC]*dG*dA*dG*dA*eG*e[5mC]*eA*e[5mC]*eT),apoptosis in T47D cells,T47D cells,induce apoptosis
same,"G2/M delay or arrest, dose response",A549 cells,dose-responsive G2/M delay or arrest
same,phase of the cell cycle in which cells arrest or delay,"HeLa cells; 150 nM, 24 hours",G2/M-phase
same,phase of the cell cycle in which cells arrest or delay,"HeLa cells; 150 nM, 48 hours",S- and G2/M-phases
"ISIS 338637: SEQ ID NO: 464, targeted against mir-96 (TCAGAGCGGAGAGACACAAG; all 2'-MOE, all phosphorothioate, methylation of C not given here)","cell cycle delay or arrest (G2/M), dose response",A549 cells,dose-responsive delay or arrest
same,phase of the cell cycle in which cells arrest or delay,"HeLa cells; 150 nM, 24 hours",G1-phase
same,phase of the cell cycle in which cells arrest or delay,"HeLa cells; 150 nM, 48 hours",S-phase
GCTTCCCAGCGGCCTATAGT (chemistry not given here) [ISIS 338769],"cell cycle delay or arrest (G2/M), dose response",A549 cells,dose-responsive delay or arrest
same,phase of the cell cycle in which cells arrest or delay,"HeLa cells; 150 nM, 24 hours",G1-phase
same,phase of the cell cycle in which cells arrest or delay,"HeLa cells; 150 nM, 48 hours",S-phase
"338637 (antisense TCAGAGCGGAGAGACACAAG; all 2'-MOE, all phosphorothioate, methylation of C not given here) [compound 338637]",% cells in cell cycle phase: G1,A549 cells; 25 nM,100%
same,% cells in cell cycle phase: G2/M,A549 cells; 25 nM,101%
same,% cells in cell cycle phase: S,A549 cells; 25 nM,99%
same,% cells in cell cycle phase: aneuploid,A549 cells; 25 nM,99%
same,% cells in cell cycle phase: subG1,A549 cells; 25 nM,89%
same,% cells in cell cycle phase: G1,A549 cells; 50 nM,110%
same,% cells in cell cycle phase: G2/M,A549 cells; 50 nM,107%
same,% cells in cell cycle phase: S,A549 cells; 50 nM,89%
same,% cells in cell cycle phase: aneuploid,A549 cells; 50 nM,120%
same,% cells in cell cycle phase: subG1,A549 cells; 50 nM,86%
same,% cells in cell cycle phase: G1,A549 cells; 100 nM,126%
same,% cells in cell cycle phase: G2/M,A549 cells; 100 nM,115%
same,% cells in cell cycle phase: S,A549 cells; 100 nM,73%
same,% cells in cell cycle phase: aneuploid,A549 cells; 100 nM,146%
same,% cells in cell cycle phase: subG1,A549 cells; 100 nM,67%
same,% cells in cell cycle phase: G1,A549 cells; 150 nM,123%
same,% cells in cell cycle phase: G2/M,A549 cells; 150 nM,144%
same,% cells in cell cycle phase: S,A549 cells; 150 nM,66%
same,% cells in cell cycle phase: aneuploid,A549 cells; 150 nM,135%
same,% cells in cell cycle phase: subG1,A549 cells; 150 nM,216%
same,% cells aneuploid,HeLa cells; [1],188%
same,% cells in cell cycle phase G1,HeLa cells; [1],170%
same,% cells in cell cycle phase G2/M,HeLa cells; [1],84%
same,% cells in cell cycle phase S,HeLa cells; [1],70%
same,% cells in cell cycle phase subG1,HeLa cells; [1],88%
same,% cells in cell cycle phase: G1,HeLa cells; [2],90%
same,% cells in cell cycle phase: G2/M,HeLa cells; [2],117%
same,% cells in cell cycle phase: S,HeLa cells; [2],109%
same,% cells in cell cycle phase: aneuploid,HeLa cells; [2],210%
same,% cells in cell cycle phase: subG1,HeLa cells; [2],239%
